# Assay results from publication PMC6849348, “Theranostic Application of a Novel G-Quadruplex-Forming DNA Aptamer Targeting Malate Synthase of Mycobacterium tuberculosis” (Molecular Therapy. Nucleic Acids, 2019).
# Molecular target: MS (malate synthase, GlcB, Rv1837c) (Mycobacterium tuberculosis, UniProt P9WK17)
# Assay: DTNB assay of released CoA-SH at […] nm
# Assay type: biochemical
# Chain of MS (malate synthase, GlcB, Rv1837c) (P9WK17 whole entry, looked up): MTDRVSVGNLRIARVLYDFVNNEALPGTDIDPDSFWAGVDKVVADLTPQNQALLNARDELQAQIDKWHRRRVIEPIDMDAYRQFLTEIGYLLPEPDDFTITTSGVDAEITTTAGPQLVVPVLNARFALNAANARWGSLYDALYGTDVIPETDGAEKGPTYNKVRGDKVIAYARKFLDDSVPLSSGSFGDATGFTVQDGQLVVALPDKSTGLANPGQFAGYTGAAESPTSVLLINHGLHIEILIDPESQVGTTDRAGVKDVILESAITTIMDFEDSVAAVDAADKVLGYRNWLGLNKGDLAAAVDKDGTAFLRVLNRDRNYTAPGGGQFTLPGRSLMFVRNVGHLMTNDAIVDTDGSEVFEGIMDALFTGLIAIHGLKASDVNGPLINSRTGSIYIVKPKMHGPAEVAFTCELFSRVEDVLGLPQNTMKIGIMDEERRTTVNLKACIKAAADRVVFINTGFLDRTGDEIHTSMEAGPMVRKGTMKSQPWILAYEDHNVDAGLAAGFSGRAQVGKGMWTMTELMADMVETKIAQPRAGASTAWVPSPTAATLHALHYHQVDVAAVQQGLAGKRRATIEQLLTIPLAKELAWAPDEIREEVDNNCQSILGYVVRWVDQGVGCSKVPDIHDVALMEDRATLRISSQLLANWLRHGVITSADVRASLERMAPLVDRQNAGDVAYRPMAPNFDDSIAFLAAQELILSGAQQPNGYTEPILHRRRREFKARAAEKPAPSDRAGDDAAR
smiles,measurement,value
C=C(OP(=O)(O)O)C(=O)O [phosphoenolpyruvate],IC50,374 µM
O=C(O)C(=O)CBr [bromopyruvate],IC50,114 µM
